Experiments:
Experiment in all cases: CDK kinase selectivity (HTRF / ADP-Glo)
Type in all cases: biochemical
CDK1/CycA2 = CDK1/CycA2 (Homo sapiens, UniProt P06493); settings: compound at 0.1 µM; read-out: Inhibition rate CDK1/CycA2
Description: (§1) The selectivity of the test compounds against CDK kinases was detected. The compounds were tested at a concentration of 0.1 µM, and the inhibition rate of CDK kinases by the compounds was detected in duplicate wells, mainly using HTRF and ADP-Glo detection methods.
(§2) The HTRF detection method was conducted as follows: 2-fold ATP/substrate solution and 2-fold kinase/metal ion solution were prepared respectively with a kinase reaction buffer, and 25 nL of diluted compound solution was transferred to a 384-well detection plate with Echo 655. After centrifugation, the plate was added with 2.5 µL of 2-fold kinase/metal ion solution and incubated at 25°C for 10 minutes. After 10 minutes, 2.5 µL of 2-fold substrate/ATP solution was added to the 384-well detection plate and incubated at 25°C for 60 minutes. 2 kinase detection reagent (XL665 and antibody) was prepared with detection buffer, and 5 µL of kinase detection reagent was added to the 384-well detection plate and incubated at 25°C for 60 minutes. The fluorescence signals at 620 nm (Cryptate) and 665 nm (XL665) were read by the microplate reader, and the ratio and the inhibition rate of kinase activity by the compound were calculated.
(§3) The ADP-Glo detection method was conducted as follows. 2-fold ATP/substrate solution and 2-fold kinase/metal ion solution were prepared respectively with a kinase reaction buffer. 20 nL of diluted compound solution was transferred to a 384-well detection plate by Echo 655. After centrifuged, the 384-well detection plate was added with 2 µL of 2 × kinase/metal ion solution, and incubated at 25°C for 10 minutes. After 10 minutes, the 384-well detection plate was added with 2 µL of 2 × substrate/ATP solution and incubated at 25°C for 60 minutes. 4 µL of ADP-Glo reagent was added to each well and incubated at room temperature for 40 minutes. 10 µL of ADP detection reagent was added to each well and incubated at room temperature for 40 minutes. The chemiluminescent signal was detected with a microplate reader and the inhibition rate of kinase activity was calculated.

CDK1/CycB1 = CDK1/CycB1 (Homo sapiens, UniProt P06493); settings: compound at 0.1 µM; read-out: Inhibition rate CDK1/CycB1
Description: as §1, §2, §3

CDK1/CycE1 = CDK1/CycE1 (Homo sapiens, UniProt P06493); settings: compound at 0.1 µM; read-out: Inhibition rate CDK1/CycE1
Description: as §1, §2, §3

CDK12/CyclinK = CDK12/CyclinK (Homo sapiens, UniProt Q9NYV4); settings: compound at 0.1 µM; read-out: Inhibition rate CDK12/CyclinK
Description: as §1, §2, §3

CDK13/CyclinK = CDK13/CyclinK (Homo sapiens, UniProt Q14004); settings: compound at 0.1 µM; read-out: Inhibition rate CDK13/CyclinK
Description: as §1, §2, §3

CDK16/CyclinY = CDK16/CyclinY (Homo sapiens, UniProt Q00536); settings: compound at 0.1 µM; read-out: Inhibition rate CDK16/CyclinY
Description: as §1, §2, §3

CDK18/CyclinY = CDK18/CyclinY (Homo sapiens, UniProt Q07002); settings: compound at 0.1 µM; read-out: Inhibition rate CDK18/CyclinY
Description: as §1, §2, §3

CDK19/CycC = CDK19/CycC (Homo sapiens, UniProt Q9BWU1); settings: compound at 0.1 µM; read-out: Inhibition rate CDK19/CycC
Description: as §1, §2, §3

CDK2/CyCA2 = CDK2/CyCA2 (Homo sapiens, UniProt P24941); settings: compound at 0.1 µM; read-out: Inhibition rate CDK2/CyCA2
Description: as §1, §2, §3

CDK2/CycE1 = CDK2/CycE1 (Homo sapiens, UniProt P24941); settings: compound at 0.1 µM; read-out: Inhibition rate CDK2/CycE1
Description: as §1, §2, §3

CDK3/CycE1 = CDK3/CycE1 (Homo sapiens, UniProt Q00526); settings: compound at 0.1 µM; read-out: Inhibition rate CDK3/CycE1
Description: as §1, §2, §3

CDK4/CycD3 = CDK4/CycD3 (Homo sapiens, UniProt P11802); settings: compound at 0.1 µM; read-out: Inhibition rate CDK4/CycD3
Description: as §1, §2, §3

CDK4/cycD1 = CDK4/cycD1 (Homo sapiens, UniProt P11802); settings: compound at 0.1 µM; read-out: Inhibition rate CDK4/cycD1
Description: as §1, §2, §3

CDK5/p25NCK = CDK5/p25NCK (Homo sapiens, UniProt Q00535); settings: compound at 0.1 µM; read-out: Inhibition rate CDK5/p25NCK
Description: as §1, §2, §3

CDK5/p35NCK = CDK5/p35NCK (Homo sapiens, UniProt Q00535); settings: compound at 0.1 µM; read-out: Inhibition rate CDK5/p35NCK
Description: as §1, §2, §3

CDK6/CycD 1 = CDK6/CycD 1 (Homo sapiens, UniProt Q00534); settings: compound at 0.1 µM; read-out: Inhibition rate CDK6/CycD 1
Description: as §1, §2, §3

CDK6/CycD3 = CDK6/CycD3 (Homo sapiens, UniProt Q00534); settings: compound at 0.1 µM; read-out: Inhibition rate CDK6/CycD3
Description: as §1, §2, §3

CDK7/CycH/MAT1 = CDK7/CycH/MAT1 (Homo sapiens, UniProt P50613); settings: compound at 0.1 µM; read-out: Inhibition rate CDK7/CycH/MAT1
Description: as §1, §2, §3

CDK9/CycT1 = CDK9/CycT1 (Homo sapiens, UniProt P50750); settings: compound at 0.1 µM; read-out: Inhibition rate CDK9/CycT1
Description: as §1, §2, §3

Measured: inhibition at 0.1 µM

CDK5/p25NCK, sequence (Q00535 whole entry): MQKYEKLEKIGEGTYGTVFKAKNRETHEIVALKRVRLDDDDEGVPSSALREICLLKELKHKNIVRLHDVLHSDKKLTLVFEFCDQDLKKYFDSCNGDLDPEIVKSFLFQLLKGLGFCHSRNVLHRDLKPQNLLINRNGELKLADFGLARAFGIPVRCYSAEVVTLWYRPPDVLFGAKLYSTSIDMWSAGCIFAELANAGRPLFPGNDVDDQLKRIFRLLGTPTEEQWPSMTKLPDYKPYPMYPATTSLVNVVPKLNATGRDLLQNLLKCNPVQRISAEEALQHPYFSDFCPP
CDK5/p25NCK, sequence (Q15078 99-307 partner limits assumed): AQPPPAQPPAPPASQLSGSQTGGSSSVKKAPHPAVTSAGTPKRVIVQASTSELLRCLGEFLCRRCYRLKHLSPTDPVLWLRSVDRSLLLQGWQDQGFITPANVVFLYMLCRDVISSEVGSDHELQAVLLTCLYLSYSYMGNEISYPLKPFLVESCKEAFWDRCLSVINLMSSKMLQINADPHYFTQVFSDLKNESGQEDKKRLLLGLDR
CDK5/p35NCK, sequence (Q00535 whole entry): as the sequence (Q00535 whole entry) above
CDK5/p35NCK, sequence (Q15078 2-307 partner limits assumed): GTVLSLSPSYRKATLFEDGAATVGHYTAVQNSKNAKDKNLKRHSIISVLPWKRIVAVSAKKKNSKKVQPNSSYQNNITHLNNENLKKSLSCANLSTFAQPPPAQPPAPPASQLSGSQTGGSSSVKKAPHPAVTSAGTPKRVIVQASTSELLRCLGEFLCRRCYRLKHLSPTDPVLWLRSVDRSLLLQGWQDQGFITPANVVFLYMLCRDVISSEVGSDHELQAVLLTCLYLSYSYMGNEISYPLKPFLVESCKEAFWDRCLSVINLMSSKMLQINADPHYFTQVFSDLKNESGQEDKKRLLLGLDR
CDK16/CyclinY, sequence (Q00536 whole entry): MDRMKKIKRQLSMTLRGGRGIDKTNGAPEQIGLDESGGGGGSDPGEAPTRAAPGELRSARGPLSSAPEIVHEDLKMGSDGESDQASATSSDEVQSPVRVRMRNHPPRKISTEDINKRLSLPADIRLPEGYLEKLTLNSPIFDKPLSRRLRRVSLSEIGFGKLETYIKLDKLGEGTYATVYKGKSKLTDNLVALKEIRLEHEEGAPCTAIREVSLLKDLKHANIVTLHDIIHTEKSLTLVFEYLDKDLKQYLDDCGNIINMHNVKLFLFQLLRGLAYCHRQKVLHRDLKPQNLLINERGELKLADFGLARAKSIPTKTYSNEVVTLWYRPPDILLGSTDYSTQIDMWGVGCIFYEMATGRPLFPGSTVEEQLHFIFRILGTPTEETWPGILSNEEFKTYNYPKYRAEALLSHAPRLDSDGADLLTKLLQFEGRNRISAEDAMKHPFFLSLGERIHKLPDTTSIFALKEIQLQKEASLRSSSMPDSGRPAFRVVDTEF
CDK16/CyclinY, sequence (Q8ND76 whole entry partner): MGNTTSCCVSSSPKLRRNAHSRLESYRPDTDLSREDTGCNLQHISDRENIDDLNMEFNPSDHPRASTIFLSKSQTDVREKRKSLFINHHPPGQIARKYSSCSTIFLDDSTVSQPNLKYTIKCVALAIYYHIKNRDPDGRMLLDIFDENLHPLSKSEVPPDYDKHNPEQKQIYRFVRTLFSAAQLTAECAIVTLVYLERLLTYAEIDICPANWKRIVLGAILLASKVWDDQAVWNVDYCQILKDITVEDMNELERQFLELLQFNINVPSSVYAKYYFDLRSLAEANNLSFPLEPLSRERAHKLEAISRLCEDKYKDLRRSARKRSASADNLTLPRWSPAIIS
CDK9/CycT1, sequence (P50750 whole entry, species assumed): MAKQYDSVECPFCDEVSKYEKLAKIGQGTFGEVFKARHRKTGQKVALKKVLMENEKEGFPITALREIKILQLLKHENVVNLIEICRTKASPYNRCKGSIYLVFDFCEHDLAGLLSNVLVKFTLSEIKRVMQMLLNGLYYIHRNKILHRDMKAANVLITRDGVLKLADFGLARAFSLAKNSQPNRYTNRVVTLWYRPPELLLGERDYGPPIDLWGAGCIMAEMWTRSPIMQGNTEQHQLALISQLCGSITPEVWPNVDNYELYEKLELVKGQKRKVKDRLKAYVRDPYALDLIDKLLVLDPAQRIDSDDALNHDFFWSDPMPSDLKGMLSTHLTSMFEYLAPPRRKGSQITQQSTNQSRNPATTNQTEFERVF
CDK9/CycT1, sequence (O60563 whole entry partner, species assumed): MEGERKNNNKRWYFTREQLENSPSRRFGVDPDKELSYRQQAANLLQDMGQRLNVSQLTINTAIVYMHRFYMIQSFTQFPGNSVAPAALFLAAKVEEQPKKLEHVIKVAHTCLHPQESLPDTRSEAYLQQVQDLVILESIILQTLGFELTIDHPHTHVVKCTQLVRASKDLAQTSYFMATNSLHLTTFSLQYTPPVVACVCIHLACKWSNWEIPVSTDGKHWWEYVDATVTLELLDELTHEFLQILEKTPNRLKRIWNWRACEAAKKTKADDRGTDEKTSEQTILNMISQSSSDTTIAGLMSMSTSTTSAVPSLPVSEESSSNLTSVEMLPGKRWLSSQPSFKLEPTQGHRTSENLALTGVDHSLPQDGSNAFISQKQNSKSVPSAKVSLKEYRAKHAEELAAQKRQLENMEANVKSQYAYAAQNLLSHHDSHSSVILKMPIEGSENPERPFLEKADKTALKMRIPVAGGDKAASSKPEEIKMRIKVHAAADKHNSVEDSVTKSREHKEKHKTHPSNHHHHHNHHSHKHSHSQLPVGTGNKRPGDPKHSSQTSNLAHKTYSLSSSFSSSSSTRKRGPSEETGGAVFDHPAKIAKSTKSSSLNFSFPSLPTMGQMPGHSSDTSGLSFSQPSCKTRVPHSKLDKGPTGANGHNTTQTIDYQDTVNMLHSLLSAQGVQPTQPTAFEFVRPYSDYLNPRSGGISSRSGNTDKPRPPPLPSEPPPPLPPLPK
CDK19/CycC, sequence (Q9BWU1 whole entry): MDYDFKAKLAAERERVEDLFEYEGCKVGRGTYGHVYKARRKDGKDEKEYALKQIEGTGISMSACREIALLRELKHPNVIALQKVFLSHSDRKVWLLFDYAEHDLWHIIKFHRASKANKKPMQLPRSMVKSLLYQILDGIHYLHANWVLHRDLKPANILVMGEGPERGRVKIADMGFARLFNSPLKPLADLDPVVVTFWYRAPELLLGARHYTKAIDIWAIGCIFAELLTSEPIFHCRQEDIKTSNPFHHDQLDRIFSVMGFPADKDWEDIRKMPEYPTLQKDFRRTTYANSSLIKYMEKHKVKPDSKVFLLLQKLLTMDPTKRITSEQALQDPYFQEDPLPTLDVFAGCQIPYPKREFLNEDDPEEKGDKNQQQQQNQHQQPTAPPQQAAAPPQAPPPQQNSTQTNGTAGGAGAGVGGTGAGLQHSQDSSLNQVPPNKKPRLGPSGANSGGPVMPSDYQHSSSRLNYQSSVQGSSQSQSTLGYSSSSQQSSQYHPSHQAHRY
CDK19/CycC, sequence (P24863 whole entry partner): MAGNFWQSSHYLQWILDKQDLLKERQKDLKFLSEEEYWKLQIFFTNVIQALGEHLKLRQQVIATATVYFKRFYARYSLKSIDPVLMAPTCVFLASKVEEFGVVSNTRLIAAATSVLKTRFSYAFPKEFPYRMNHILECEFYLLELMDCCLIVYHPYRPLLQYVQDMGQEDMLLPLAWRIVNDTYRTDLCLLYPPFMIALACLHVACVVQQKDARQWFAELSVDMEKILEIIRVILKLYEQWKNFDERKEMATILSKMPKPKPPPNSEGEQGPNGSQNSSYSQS
CDK6/CycD3, sequence (Q00534 whole entry, species assumed): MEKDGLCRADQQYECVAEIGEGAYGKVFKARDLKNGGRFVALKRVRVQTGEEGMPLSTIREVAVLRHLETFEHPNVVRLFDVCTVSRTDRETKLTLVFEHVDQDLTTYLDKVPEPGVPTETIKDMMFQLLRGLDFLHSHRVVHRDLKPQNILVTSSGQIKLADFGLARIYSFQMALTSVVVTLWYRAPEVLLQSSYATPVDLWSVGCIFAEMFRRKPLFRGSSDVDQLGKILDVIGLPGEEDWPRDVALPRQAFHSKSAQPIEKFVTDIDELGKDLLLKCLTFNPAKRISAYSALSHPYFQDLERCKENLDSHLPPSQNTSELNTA
CDK6/CycD3, sequence (P30281 whole entry partner, species assumed): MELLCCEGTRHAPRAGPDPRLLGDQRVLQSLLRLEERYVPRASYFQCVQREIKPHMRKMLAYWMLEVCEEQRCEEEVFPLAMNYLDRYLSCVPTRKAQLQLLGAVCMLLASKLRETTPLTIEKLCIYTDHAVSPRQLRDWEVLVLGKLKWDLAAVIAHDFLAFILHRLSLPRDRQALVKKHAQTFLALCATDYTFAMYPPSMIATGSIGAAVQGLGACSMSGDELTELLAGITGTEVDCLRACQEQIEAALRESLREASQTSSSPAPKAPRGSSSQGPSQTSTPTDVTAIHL
CDK6/CycD 1, sequence (Q00534 whole entry): as the sequence (Q00534 whole entry, species assumed) above
CDK6/CycD 1, sequence (P24385 whole entry partner): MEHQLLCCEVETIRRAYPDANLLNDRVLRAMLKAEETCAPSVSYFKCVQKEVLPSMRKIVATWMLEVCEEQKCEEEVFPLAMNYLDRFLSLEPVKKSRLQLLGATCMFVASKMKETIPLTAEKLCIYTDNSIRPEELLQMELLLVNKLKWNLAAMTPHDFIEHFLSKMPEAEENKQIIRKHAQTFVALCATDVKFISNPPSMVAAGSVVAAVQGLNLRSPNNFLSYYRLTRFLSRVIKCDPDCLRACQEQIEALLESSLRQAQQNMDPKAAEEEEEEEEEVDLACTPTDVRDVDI

Clc1cnc2nc1NCCCCCNCc1cccc(c1)N2 [Compound 8, 1^5-chloro-2,5,11-triaza-1(2,4)-pyrimidina-3(1,3)-benzenacyclodecaphane]
> 95%: CDK9/CycT1
50 to 75%: CDK12/CyclinK | CDK13/CyclinK | CDK16/CyclinY | CDK2/CycE1 | CDK3/CycE1 | CDK4/CycD3 | CDK5/p25NCK | CDK7/CycH/MAT1
< 50%: all other assays above

From EP4610262A1, “MACROCYCLIC COMPOUND AS CDK9 INHIBITOR AND USE THEREOF” (Artivila Biopharma, priority 2022, dated 2024)
